Assay results taken from US20240216344A1, “THIAZOLIDINEDIONE ANALOGS FOR THE TREATMENT OF NAFLD AND METABOLIC DISEASES” (Cirius Therapeutics, Inc., priority 2019, published 2024).

Experiments:
[1] = test system: patients with biopsy-proven NASH with fibrosis and no cirrhosis; assay: EMMINENCE Phase 2b trial, safety and weight; assay type: in vivo
Description: The primary efficacy endpoint was assessed at 12 months. Clinic visits were conducted at baseline, 1, 2, 3, 6, 9, and 12 months, followed 2 weeks later by a safety visit.
Safety: Safety was evaluated by adverse event incidence, and changes in clinical laboratory values, vital signs, and ECG parameters. Major adverse cardiovascular events (MACE) including death, non-fatal myocardial infarction (MI), unstable angina (USA) hospitalization, hospital admission for heart failure (HF), or non-fatal ischemic stroke; liver events including ascites, hepatic encephalopathy, variceal hemorrhage, hepatocellular carcinoma (HCC), or liver transplant; severe hypoglycemia; and bone fracture requiring surgery or hospitalization were adjudicated by an independent physician.
Using a modified intent-to-treat approach, treated patients were included for analysis in their randomly-assigned treatment groups. Participation of sites with serious GCP or quality concerns were terminated and their data excluded from the analyses. Post-baseline measures through 14 days after the last study drug dose were included. […] The central histopathologist's re-read of baseline biopsies was used as baseline. Patients who no longer qualified on re-read were included in the analyses. […] Stratification-adjusted risk differences adjusted similarly are provided. The primary analyses included only observed data; sensitivity analyses included multiply-imputing missing follow-up and considering missing follow-up as a non-responder. Each active dose was compared to placebo regarding changes in NASH CRN scores using analysis of covariance with adjustment for age, sex, diabetes mellitus, Vitamin E≥400 IU, baseline fibrosis F1 versus F2/F3, and the baseline value. Changes in laboratory markers from baseline to 6 months and to 12 months were analyzed similarly.

[2] = test system: patients with biopsy-confirmed NASH; assay: EMMINENCE post hoc multivariable models and canonical correlation of biomarker changes with histological changes; parameters: species or system human
Excerpt: EMMINENCE was a phase 2 study examining the effects of three doses of MSDC-0602K versus placebo on liver histology in 392 patients with biopsy-confirmed nonalcoholic steatohepatitis (NASH). Patients provided written informed consent, and the protocol and consent form were approved by applicable institutional review boards. Baseline and 12-month biopsies were scored by a single expert hepatopathologist using the NASH Clinical Research Network (CRN) scoring criteria. Fasting blood samples for routine clinical chemistry as well as frozen samples for biomarker assays were analyzed centrally. In this post hoc analysis, multivariable models and partial canonical correlation were used to examine the associations between changes in biomarkers and changes in histological scores from baseline to 12 months in the 339 patients with paired biopsies. The trial was registered on ClinicalTrials.gov (NCT02784444).
Individual patient data from the 339 subjects with paired biopsy results in EMMINENCE were used to construct univariable and multivariable ANCOVA models for the 12-month change in each histological component (steatosis, inflammation, ballooning, and fibrosis). Candidate predictors included age, sex, type 2 diabetes (T2D) history, and baseline and 12-month changes in weight and laboratory parameters (liver injury markers, cholesterols, insulin sensitivity markers, ELF, CK-18). Non-linearity of the association between each continuous predictor and each outcome was examined by assessing the significance of the non-linear components of a restricted cubic spline transformation for each predictor. Appropriate transformations (quadratic, cubic, linear spline, log 2) were applied where deemed necessary based on review of the Akaike's Information Criterion and visual examination of plots of the predicted outcomes against each predictor. Due to issues with estimating the associations when severe multicollinearity exists between predictors in the model, ALT (collinear with AST) and waist circumference (collinear with weight) were excluded as candidate predictors. Multiple imputation with ten imputed datasets and assuming multivariate normality was used to handle missing values. The occurrence of missing data for any of the predictors was relatively low ([…] missing one or more predictor values). Rubin's algorithm was used for average estimates for predictors across the imputed datasets. Backwards selection was used for each outcome, with predictors remaining in a majority of the ten imputed datasets at the 0.05 significance level (>5) included in the final model. Each model was adjusted for the baseline value of the outcome. If a change from baseline predictor was included in the final model, then the baseline value for the parameter was also included in the final model.
A second multivariable model was fit for each outcome including the predictors found prognostic for any of the biopsy component changes. A multivariable ANCOVA model that included these predictors was run for NAS (the sum of ballooning, inflammation, and steatosis scores). Multivariable logistic regression models that included these predictors were also run for the binary outcomes of NASH resolution without worsening of fibrosis and fibrosis improvement without worsening of NASH.
A partial canonical correlation using individual patient data from EMMINENCE examined the correlation of changes in weight, AST, HbA1c, GGT, CK-18 (taken together) with changes in ballooning, inflammation, steatosis, and fibrosis (taken together) adjusted for those baseline variables prognostic of any of the histological feature changes in the multivariable models in the 306 subjects with complete observed data for the variables involved. This analysis results in “canonical variates” that are linear combinations of the original sets of variables weighted in such a way as to maximize the correlation between them. […]

[3] = effect size for a change of 20 in MSDC-0602K Dose, multivariable model with dose added
[4] = effect size for a change of 20 in MSDC-0602K Dose, univariable model

COc1cccc(C(=O)COc2ccc(CC3SC(=O)NC3=O)cc2)c1 (centres unmarked) [MSDC-0602K]
Non-cardiac chest pain (SAE) ([1]; 62.5 mg): 1 patients | Subjects with TEAEs Leading to Study Drug Discontinuation ([1]; 62.5 mg): 2 (2.0) n (%) | Subjects with TEAEs Related to Study Drug ([1]; 62.5 mg): 22 (22.2) n (%) | Subjects with TEAEs Related to Study Drug and Leading to Study Drug Discontinuation ([1]; 62.5 mg): 0 (0.0) n (%) | Subjects with any Treatment-Emergent Adverse Event (TEAE) ([1]; 62.5 mg): 78 (78.8) n (%) | TESAE: General disorders and administration site conditions ([1]; 62.5 mg): 1 ( 1.0) n (%) | TESAE: Non-cardiac chest pain ([1]; 62.5 mg): 1 ( 1.0) n (%) | adverse events of edema ([1]; 62.5 mg): 6 patients | fractures requiring hospitalization or surgery ([1]; 62.5 mg): 1 patients | treatment discontinuation rate ([1]; 62.5 mg): 9.1% | unadjusted median weight change ([1]; 62.5 mg): 0.82 kg | Non-cardiac chest pain (SAE) ([1]; 125 mg): 1 patients | Subjects with TEAEs Leading to Study Drug Discontinuation ([1]; 125 mg): 3 (3.1) n (%) | Subjects with TEAEs Related to Study Drug ([1]; 125 mg): 26 (26.5) n (%) | Subjects with TEAEs Related to Study Drug and Leading to Study Drug Discontinuation ([1]; 125 mg): 1 (1.0) n (%) | Subjects with any Treatment-Emergent Adverse Event (TEAE) ([1]; 125 mg): 76 (77.6) n (%) | TESAE: General disorders and administration site conditions ([1]; 125 mg): 2 (2.0) n (%) | TESAE: Non-cardiac chest pain ([1]; 125 mg): 1 (1.0) n (%) | adjudicated HF hospitalization ([1]; 125 mg): One | adjudicated MACE ([1]; 125 mg): two | adverse events of edema ([1]; 125 mg): 11 patients | fractures requiring hospitalization or surgery ([1]; 125 mg): 1 patients | treatment discontinuation rate ([1]; 125 mg): 12.2% | unadjusted median weight change ([1]; 125 mg): 1.10 kg | unrelated deaths ([1]; 125 mg): one | Subjects with TEAEs Leading to Study Drug Discontinuation ([1]; 250 mg): 1 (1.0) n (%) | Subjects with TEAEs Related to Study Drug ([1]; 250 mg): 25 (24.8) n (%) | Subjects with TEAEs Related to Study Drug and Leading to Study Drug Discontinuation ([1]; 250 mg): 0 (0.0) n (%) | Subjects with any Treatment-Emergent Adverse Event (TEAE) ([1]; 250 mg): 77 (76.2) n (%) | TESAE: General disorders and administration site conditions ([1]; 250 mg): 1 (1.0) n (%) | TESAE: Non-cardiac chest pain ([1]; 250 mg): 0 (0.0) n (%) | adjudicated severe hypoglycemia event ([1]; 250 mg): One | adverse events of edema ([1]; 250 mg): 7 patients | fractures requiring hospitalization or surgery ([1]; 250 mg): 2 patients | treatment discontinuation rate ([1]; 250 mg): 12.9% | unadjusted median weight change ([1]; 250 mg): 2.28 kg | tolerability ([1]; 12 months daily oral): well tolerated | adjudicated liver events ([1]; all groups): no adjudicated liver events occurred | Effect Size, change from baseline in steatosis, Multivariable Model ([2]; MSDC-0602K Dose, multivariable model with dose added, size of change not given): −0.03 | Effect Size for a change of 20 in MSDC-0602K Dose; outcome change from baseline in fibrosis ([2]; Multivariable model): −0.01 | Effect Size for change of 20 in MSDC-0602K Dose; outcome NAS ([2]; Multivariable model): −0.03 | Effect Size for a change of 20 in MSDC-0602K Dose; outcome change from baseline in fibrosis ([2]; Univariable Model): −0.02 | Effect Size, change from baseline in ballooning, Multivariable Model [2, 3]: −0.02 | Effect Size, change from baseline in inflammation, Multivariable Model [2, 3]: 0.01 | Effect Size, change from baseline in ballooning, Univariable Model [2, 4]: −0.01 | Effect Size, change from baseline in inflammation, Univariable Model [2, 4]: −0.01 | Effect Size, change from baseline in steatosis, Univariable Model [2, 4]: −0.03
